Measurements: ChEMBL document CHEMBL1159088, “Design, synthesis and biological evaluation of simplified analogues of the RNA polymerase inhibitor etnangien” (Bioorg Med Chem Lett, 2010)
In brackets after ≈: the same amount, converted by molar mass.

How the values were obtained:
Staphylococcus aureus = assay: Antibacterial activity against Staphylococcus aureus; format: functional
Micrococcus luteus = assay: Antibacterial activity against Micrococcus luteus; format: functional
Escherichia coli = assay: Antibacterial activity against Escherichia coli; format: functional
[1] = tested on: Corynebacterium glutamicum; assay: Antibacterial activity against Corynebacterium glutamicum; format: functional
Mycolicibacterium phlei = assay: Antibacterial activity against Mycobacterium phlei; format: functional
Saccharomyces cerevisiae = assay: Antibacterial activity against Saccharomyces cerevisiae; format: functional
[2] = Chemical stability at pH >3; format: physicochemical
[3] = Chemical stability at pH >10; format: physicochemical
[4] = Chemical stability at pH 7; format: physicochemical; conditions: buffer
[5] = Chemical stability after 48 hrs; format: physicochemical; conditions: read-out: Stability

| SMILES | MIC (Staphylococcus aureus) [µg/mL] | MIC (Micrococcus luteus) [µg/mL] | MIC (Escherichia coli) [µg/mL] | MIC [1] [µg/mL] | MIC (Mycolicibacterium phlei) [µg/mL] | MIC (Saccharomyces cerevisiae) [µg/mL] | Stability [2] | Stability [3] | Stability [4] | remaining at 48 h [5] [%] |
| --- | --- | --- | --- | --- | --- | --- | --- | --- | --- | --- |
| CO[C@@H]1C/C=C\C=C\C[C@H](C)[C@@H](O)[C@H](C)[C@@H](O)[C@H](C)[C@H](O)CC(=O)O[C@H]([C@H](C)[C@H](O)/C=C(C)/C=C/C=C/C=C/C=C/C=C/C[C@H](O)/C(C)=C/CCC(=O)O)C[C@H](O)CCC1 [ETNANGIEN] | 1 (≈ 1.19 µM) | 0.06 (≈ 0.0713 µM) | > 80 | 0.03 (≈ 0.0357 µM) | 0.12 (≈ 0.143 µM) | > 80 | Unstable | Unstable | Stable | – |
| CO[C@@H]1C/C=C\C=C\C[C@H](C)[C@H]2OC(C)(C)O[C@H]([C@H]2C)[C@H](C)[C@H](O)CC(=O)O[C@H]([C@H](C)[C@H](O)/C=C(C)/C=C/CO)C[C@H](O)CCC1 | > 20 | > 20 | > 20 | 10 (≈ 15.4 µM) | 20 (≈ 30.7 µM) | > 20 | – | – | – | – |

Now from value to compound:

| MIC (Staphylococcus aureus) [µg/mL] | MIC (Micrococcus luteus) [µg/mL] | MIC (Escherichia coli) [µg/mL] | MIC [1] [µg/mL] | MIC (Mycolicibacterium phlei) [µg/mL] | MIC (Saccharomyces cerevisiae) [µg/mL] | Stability [2] | Stability [3] | Stability [4] | remaining at 48 h [5] [%] | SMILES |
| --- | --- | --- | --- | --- | --- | --- | --- | --- | --- | --- |
| > 20 | > 20 | > 20 | 20 (≈ 31.5 µM) | > 20 | > 20 | – | – | – | – | COc1ccc(COC[C@@H](C)[C@@H](O)C[C@H]2CCC[C@H](OC)C/C=C\C=C\C[C@H](C)[C@@H](O)[C@H](C)[C@@H](O)[C@H](C)[C@H](O)CC(=O)O2)cc1 |
| 2.5 (≈ 2.92 µM) | 0.39 (≈ 0.456 µM) | > 20 | 0.24 (≈ 0.281 µM) | – | > 40 | Unstable | Unstable | Stable | < 5 | COC(=O)CC/C=C(\C)[C@@H](O)C/C=C/C=C/C=C/C=C/C=C/C(C)=C/[C@@H](O)[C@@H](C)[C@@H]1C[C@H](O)CCC[C@H](OC)C/C=C\C=C\C[C@H](C)[C@@H](O)[C@H](C)[C@@H](O)[C@H](C)[C@H](O)CC(=O)O1 [ETNANGIEN METHYL ESTER] |
| > 20 | > 20 | > 20 | 10 (≈ 15.8 µM) | 20 (≈ 31.5 µM) | > 20 | – | – | – | – | COc1ccc(COC[C@@H](C)[C@@H]2C[C@H](O)CCC[C@H](OC)C/C=C\C=C\C[C@H](C)[C@@H](O)[C@H](C)[C@@H](O)[C@H](C)[C@H](O)CC(=O)O2)cc1 |
